Source: patent US20040110821A1, “GAL3 receptor antagonists for the treatment of affective disorders” (priority 2002, published 2004)

Experiments:
human GAL1 receptor = target: T1, human GAL1 receptor (Homo sapiens, UniProt P47211); assay: Radioligand binding at cloned human GAL1 receptor; conditions: pyrimidines, Tables 1-3, read-out: Ki (nM) GalR1
T1 construct: expressed in transfected cells
T1 sequence (P47211 1-349): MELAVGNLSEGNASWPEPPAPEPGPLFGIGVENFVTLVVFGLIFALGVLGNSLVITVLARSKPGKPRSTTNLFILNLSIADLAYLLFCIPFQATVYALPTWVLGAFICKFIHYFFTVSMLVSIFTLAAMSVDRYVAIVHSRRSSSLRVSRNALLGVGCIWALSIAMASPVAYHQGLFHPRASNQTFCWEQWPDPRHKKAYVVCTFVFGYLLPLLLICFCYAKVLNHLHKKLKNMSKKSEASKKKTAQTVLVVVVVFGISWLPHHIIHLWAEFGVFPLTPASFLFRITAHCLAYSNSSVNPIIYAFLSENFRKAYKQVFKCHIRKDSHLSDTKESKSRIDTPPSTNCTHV
Experimental: (§1) The present invention provides for a method of determining the binding affinity of a GAL3 antagonist, wherein the GAL3 antagonist is dissolved in a “suitable solvent”. A “suitable solvent” means one which permits the measurement of binding affinity of the GAL3 antagonist to the human GAL3 receptor at concentrations less than 1 μM, preferably less than 100 nM. Examples of solvents include, but are not limited to, DMSO, ethanol, N,N-dimethylacetamide, or water. For indolones, the preferred solvent is 3% DMSO (final concentration in the assay). For pyrimidines, the preferred solvent is 1% ethanol/0.09% polypuronic acid F-127 (final concentration in the assay). For any other type of compounds, the preferred solvent is the solvent which permits the measurement of binding affinity of a GAL3 antagonist at the lowest concentration. Once a suitable solvent is ascertained for the binding assay of the human GAL3 receptor, the same solvent is used in assays to determine the binding affinity for instance, at the GAL1 receptor.
(§2) The binding properties of the pyrimidines of the present invention were evaluated at the cloned human galanin receptors, GAL1, GAL2, and GAL3, using protocols described herein.
(§3) The binding properties of the indolones of the present invention were evaluated at the cloned human galanin receptors, GAL1, GAL2, and GAL3, using protocols described herein.
(§4) LM(tk-) cells were stably transfected with the human GAL1 or GAL3 receptor. CHO cells were stably transfected with the human GAL2 receptor.
(§5) cDNAs for the human and rat GAL1, and human and rat GAL3 receptors were transfected with a G-418 resistant gene into the mouse fibroblast LM(tk-) cell line by a calcium phosphate transfection method (Cullen, 1967). Stably transfected cells were selected with G-418. Human and rat GAL2 receptors were similarly transfected into CHO cells.
(§6) Membranes were harvested from stably transfected LM(tk-) cells. Adherent cells were washed twice in ice-cold phosphate buffered saline (138 mM NaCl, 8.1 mM Na2HPO4, 2.5 mM KCl, 1.2 mM KH2PO4, 0.9 mM CaCl2, 0.5 mM MgCl2, pH 7.4) and lysed by sonication in ice-cold sonication buffer (20 mM Tris-HCl, 5 mM EDTA, pH 7.7). Large particles and debris were cleared by low speed centrifugation (200×g, 5 min, 4° C.). Membranes were collected from the supernatant fraction by centrifugation (32,000×g, 18 min, 4° C.), washed with ice-cold hypotonic buffer, and collected again by centrifugation (32,000×g, 18 min, 4° C.). The final membrane pellet was resuspended by sonication into a small volume of ice-cold binding buffer (−1 ml for every 5 plates: 10 mM NaCl, 20 mM HEPES, 0.22 mM KH2PO4, 1.26 mM CaCl2, 0.81 mM MgSO4, pH 7.4). Protein concentration was measured by the Bradford method (Bradford, 1976) using Bio-Rad Reagent, with bovine serum albumin as a standard. Membranes were held on ice for up to one hour and used fresh, or flash frozen and stored in liquid nitrogen. Membranes were prepared similarly from CHO cells.
(§7) Galanin Receptors: Binding assays were performed according to the following published methods: human GAL3 (PCT International Publication No. WO 98/15570), human GAL1 (PCT International Publication No. WO 95/2260) human GAL2 (PCT International Publication No. WO 97/26853).
(§8) Binding data were analyzed using nonlinear regression and statistical techniques available in the GraphPAD Prism package (San Diego, Calif.). Enzymatic assay data were derived from a standard curve of reference compound data.

human GAL2 receptor = target: T2, human GAL2 receptor (Homo sapiens, UniProt O43603); assay: Radioligand binding at cloned human GAL2 receptor; conditions: pyrimidines, Tables 1-3, read-out: Ki (nM) GalR2
T2 construct: expressed in transfected cells
T2 sequence (O43603 1-387): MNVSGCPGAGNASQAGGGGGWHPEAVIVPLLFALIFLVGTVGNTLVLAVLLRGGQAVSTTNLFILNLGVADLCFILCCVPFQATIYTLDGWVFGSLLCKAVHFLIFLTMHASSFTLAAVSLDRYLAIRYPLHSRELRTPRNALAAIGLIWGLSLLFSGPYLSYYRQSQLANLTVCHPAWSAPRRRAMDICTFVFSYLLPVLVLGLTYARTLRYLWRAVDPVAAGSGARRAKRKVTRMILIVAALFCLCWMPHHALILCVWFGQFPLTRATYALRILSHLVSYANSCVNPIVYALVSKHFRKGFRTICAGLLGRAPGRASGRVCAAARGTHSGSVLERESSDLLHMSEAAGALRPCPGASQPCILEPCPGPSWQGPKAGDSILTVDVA
Experimental: as §1, §2, §3, §4, §5, §6, §7, §8

Compound | Ki (human GAL1 receptor) [nM] | Ki (human GAL2 receptor) [nM]
Cc1ccc(Nc2cc(N3CCCCC3)nc(N3CCN(c4ccccn4)CC3)n2)cc1 [Example 30] | > 5000 | –
Cc1ccc(Nc2cc(N3CCCCC3)nc(N3CCc4ccccc43)n2)cc1 [Example 39] | > 5000 | > 5000
Cc1ccc(Nc2cc(N(C)C)nc(Nc3ccc(Cl)c(Cl)c3)n2)cc1 [Example 55] | > 5000 | > 5000
COc1ccc2[nH]cc(CCNc3nc(Nc4ccc(C)cc4)cc(N4CCCCC4)n3)c2c1 [Example 9] | > 5000 | –
Cc1ccc(Nc2cc(N(C)C)nc(N3CCC(c4ccccc4)CC3)n2)cc1 [Example 81] | > 5000 | –
CN(C)c1cc(Nc2cccc(F)c2)nc(Nc2ccccc2)n1 [Example 57] | > 5000 | > 5000
COc1cccc(Nc2cc(N3CCCCC3)nc(N(C)CCc3c[nH]c4ccccc34)n2)c1 [Example 17] | > 5000 | –
Cc1ccc(Nc2cc(N(C)C)nc(N3CCN(c4ccc(C)cc4)CC3)n2)cc1 [Example 87] | > 5000 | –
Cc1ccc(Nc2cc(N3CCCCC3)nc(NCCc3c[nH]c4ccccc34)n2)cc1 [Example 10] | > 5000 | –
CN(C)c1cc(Nc2ccc(C(C)(C)C)cc2)nc(Nc2ccccc2)n1 [Example 63] | > 5000 | > 5000
CN(C)c1cc(Nc2ccc3ccccc3c2)nc(Nc2ccccc2)n1 [Example 65] | > 5000 | > 5000
Cc1ccc(Nc2cc(N3CCCCC3)nc(Nc3ccccc3)n2)cc1 [Example 3] | > 5000 | > 5000
Cc1ccc(Nc2cc(N(C)C)nc(Nc3ccccc3)n2)cc1 [Example 54] | > 5000 | > 5000
Cc1ccc(Nc2cc(N3CCCCC3)nc(N3CCN(c4ncccn4)CC3)n2)cc1 [Example 37] | > 5000 | –
Cc1ccc(Nc2cc(N3CCCCC3)nc(N3Cc4cccc5cccc(c45)C3)n2)cc1 [Example 43] | > 5000 | > 5000
Cc1ccc(Nc2cc(N3CCCCC3)nc(N(C)CCc3c[nH]c4ccccc34)n2)cc1Cl [Example 16] | > 5000 | > 5000
CN(C)c1cc(Nc2ccccc2)nc(Nc2ccccc2)n1 [Example 50] | > 5000 | > 5000

Compound | Ki (human GAL1 receptor) [nM] | Ki (human GAL2 receptor) [nM]
Cc1ccc(Nc2cc(N3CCCCC3)nc(N(C)c3ccccc3)n2)cc1 [Example 6] | > 5000 | –
Cc1ccc(Nc2cc(N(C)C)nc(N(C)C3CCCCC3)n2)cc1 [Example 73] | > 5000 | –
Cc1ccc(Nc2cc(N3CCCCC3)nc(N3CCCc4ccccc43)n2)cc1 [Example 40] | > 5000 | –
Cc1ccc(Nc2cc(N(C)C)nc(N(C)c3ccc(C)cc3)n2)cc1 [Example 72] | > 5000 | –
Cc1ccc(Nc2cc(N3CCCCC3)nc(N3CCN(c4cc(C(F)(F)F)ccn4)CC3)n2)cc1 [Example 32] | > 5000 | –
CCc1ccccc1N1CCN(c2nc(Nc3ccc(C)cc3)cc(N3CCCCC3)n2)CC1 [Example 26] | > 5000 | –
Cc1ccc(Nc2cc(N3CCCCC3)nc(N3CCC(O)(c4ccccc4)CC3)n2)cc1 [Example 44] | > 5000 | –
COc1cc2c(cc1OC)CN(c1nc(Nc3ccc(C)cc3)cc(N3CCCCC3)n1)CC2 [Example 42] | > 5000 | –
Cc1ccc(Nc2cc(N(C)C)nc(N3CCN(c4ccccc4C)CC3)n2)cc1 [Example 85] | > 5000 | –
COCCN(CCc1c[nH]c2ccccc12)c1nc(Nc2ccc(C)cc2)cc(N2CCCCC2)n1 [Example 19] | > 5000 | –
Cc1ccc(Nc2cc(N(C)C)nc(N3CCC(O)(c4ccccc4)CC3)n2)cc1 [Example 80] | > 5000 | –
CN(CCc1c[nH]c2ccccc12)c1nc(Nc2cccc(F)c2)cc(N2CCCCC2)n1 [Example 14] | > 5000 | –
Cc1ccc(Nc2cc(N3CCCCC3)nc(NCCc3c[nH]c4ccc(C)cc34)n2)cc1 [Example 8] | > 5000 | –
Cc1ccc(Nc2cc(N3CCCCC3)nc(N3CCN(c4ncccc4C)CC3)n2)cc1 [Example 31] | > 5000 | –
Cc1ccc(Nc2cc(N3CCCCC3)nc(N3CCC(c4ccccc4)CC3)n2)cc1 [Example 24] | > 5000 | –
Cc1ccc(Nc2cc(N3CCCCC3)nc(N(C)CCc3c[nH]c4ccccc34)n2)cc1 [Example 11] | > 5000 | –
